Results on three compounds are retold here after ChEMBL document CHEMBL4610104, “Dipleosporalones A and B, Dimeric Azaphilones from a Marine-Derived Pleosporales sp. Fungus” (J Nat Prod, 2020).

Assay [1] deals with MDA-MB-231. As to the kind of experiment: Cytotoxicity against human MDA-MB-231 cells by MTT assay. It counts as functional, cell-based.
Assay [2] concerns HeLa. The assay is described as follows: Cytotoxicity against human HeLa cells by MTT assay. In kind it is functional, cell-based.
The test system of assay [3] is MGC-803. As to the kind of experiment: Cytotoxicity against human MGC803 cells by MTT assay. In kind it is functional, cell-based.
Assay [4] has as its system MCF7. As to the kind of experiment: Cytotoxicity against human MCF7 cells by MTT assay. It counts as functional, cell-based.
Assay [5] deals with A549. As to the kind of experiment: Cytotoxicity against human A549 cells by MTT assay. In kind it is functional, cell-based.
Assay [6] has as its system MDA-MB-231. As to the kind of experiment: Potency index, ratio of pinophilin-B IC50 to test compound IC50 against human MDA-MB-231 cells. In kind it is functional.
Assay [7] concerns HeLa. As to the kind of experiment: Potency index, ratio of pinophilin-B IC50 to test compound IC50 against human HeLa cells. In kind it is functional.
The subject of assay [8] is MGC-803. The assay is described as follows: Potency index, ratio of pinophilin-B IC50 to test compound IC50 against human MGC803 cells. It counts as functional.
Assay [9] relates to MCF7. As to the kind of experiment: Potency index, ratio of pinophilin-B IC50 to test compound IC50 against human MCF7 cells. It counts as functional.
Assay [10] relates to A549. As to the kind of experiment: Potency index, ratio of pinophilin-B IC50 to test compound IC50 against human A549 cells. In kind it is functional.

Regarding `Cc1cc(O)cc(O)c1C(=O)O[C@H]1[C@@H]2COC([C@H]3[C@H](CO)[C@H]4C(=O)[C@@](C)(O)[C@@H](OC(=O)c5c(C)cc(O)cc5O)[C@@H]5COC(/C=C/CO)=C[C@]453)=CC2=CC(=O)[C@@]1(C)O`, the half-maximal inhibitory concentration (IC50) came to 1.9 µM in [1]; 2.5 µM in assay [2]; 1.3 µM in [3]; 2.1 µM in assay [4]; 1 µM in [5]. For the same compound, the “Ratio IC50” value in [6], in assay [7], in assay [8], in assay [9] and in assay [10] was 30 - 90 each time.

Regarding `Cc1cc(O)cc(O)c1C(=O)O[C@H]1[C@@H]2COC([C@H]3[C@H](CO)[C@@H](CO)[C@@H]3C3=CC4=CC(=O)[C@@](C)(O)[C@@H](OC(=O)c5c(C)cc(O)cc5O)[C@@H]4CO3)=CC2=CC(=O)[C@@]1(C)O`, the IC50 in assay [1] is 3.8 µM; in assay [2] it was 3 µM; in assay [3], 2 µM; in assay [4], over 10 µM; in assay [5] it was 3.5 µM. Also, the “Ratio IC50” value in assay [6], in assay [7], in assay [8], in [9] and in assay [10] was 30 - 90 each time.

On to `Cc1cc(O)cc(O)c1C(=O)O[C@H]1[C@@H]2COC(/C=C/CO)=CC2=CC(=O)[C@@]1(C)O` [PINOPHILIN B], for which the IC50 in assay [1] came to 97 µM; in assay [2], 78 µM; in [3] it was 84 µM; in assay [4], 95 µM; in assay [5], 89 µM.
